Measured values reported in PubChem BioAssay (NCI).
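96-well plates; 48 h exposure; 5 concentrations. Endpoints by linear interpolation between flanking doses. Not reached: highest tested concentration assigned. Definition used: TGI = concentration required for complete inhibition of growth.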

Tests used:
Assay in all cases: NCI-60 cell line screen, 48 h
MCF7 breast = system: MCF7 breast
UO-31 renal = system: UO-31 renal
SK-MEL-5 melanoma = system: SK-MEL-5 melanoma
NCI/ADR-RES ovarian = system: NCI/ADR-RES ovarian
SN12C renal = system: SN12C renal
NCI-H23 lung = system: NCI-H23 lung
HL-60(TB) leukemia = system: HL-60(TB) leukemia
NCI-H226 lung = system: NCI-H226 lung
SF-268 CNS = system: SF-268 CNS
MDA-MB-231 breast = system: MDA-MB-231 breast
HCT-116 colon = system: HCT-116 colon
CCRF-CEM leukemia = system: CCRF-CEM leukemia
COLO 205 colon = system: COLO 205 colon
SK-MEL-2 melanoma = system: SK-MEL-2 melanoma
EKVX NSCLC = system: EKVX NSCLC
BT-549 breast = system: BT-549 breast
IGROV1 ovarian = system: IGROV1 ovarian
NCI-H522 lung = system: NCI-H522 lung
DU-145 prostate = system: DU-145 prostate
HCC-2998 colon = system: HCC-2998 colon

SMILES | TGI (MCF7 breast) | TGI (UO-31 renal) | TGI (SK-MEL-5 melanoma) | TGI (NCI/ADR-RES ovarian) | TGI (SN12C renal) | TGI (NCI-H23 lung) | TGI (HL-60(TB) leukemia) | TGI (NCI-H226 lung) | TGI (SF-268 CNS) | TGI (MDA-MB-231 breast) | TGI (HCT-116 colon) | TGI (CCRF-CEM leukemia) | TGI (COLO 205 colon) | TGI (SK-MEL-2 melanoma) | TGI (EKVX NSCLC) | TGI (BT-549 breast) | TGI (IGROV1 ovarian) | TGI (NCI-H522 lung) | TGI (DU-145 prostate) | TGI (HCC-2998 colon)
O=c1[nH]c(=O)n(C/C=C/CBr)nc1Br | 22.2 µM | 32.5 µM | 25.9 µM | 45.6 µM | 28.1 µM | 25.5 µM | 24.5 µM | 27.8 µM | 28.5 µM | 14.1 µM | 26.3 µM | 30.7 µM | 27.8 µM | 26 µM | 28.8 µM | 27.7 µM | 29.5 µM | 14.5 µM | > 100 µM | 28.3 µM
C=C1CC(CN2CCC(=O)NC2=O)(c2ccccc2)OC1=O (stereo not given) | 2.71 µM | 32.3 µM | 24.8 µM | 32.8 µM | 33.4 µM | 22.5 µM | 4.04 µM | 34.3 µM | 50.4 µM | 32.1 µM | 12.2 µM | 4.92 µM | 6.25 µM | 27.9 µM | 40 µM | 19.9 µM | 20.7 µM | 2.17 µM | 30.1 µM | 29.7 µM
O=S(=O)(OI(O)CC(F)(F)F)C(F)(F)F | > 100 µM | > 100 µM | > 100 µM | > 100 µM | > 100 µM | > 100 µM | > 100 µM | > 100 µM | > 100 µM | > 100 µM | > 100 µM | > 100 µM | > 100 µM | > 100 µM | > 100 µM | > 100 µM | > 100 µM | > 100 µM | > 100 µM | > 100 µM
CC1OC(O[C@H]2CC[C@]3(C=O)[C@H]4CC[C@]5(C)[C@H](C6=CC(=O)OC6)CC[C@]5(O)[C@@H]4C=C[C@]3(O)C2)CC(O)C1O (stereo not given in full) | 2.71 µM | 0.546 µM | 0.359 µM | 0.623 µM | 0.464 µM | 0.494 µM | 0.689 µM | 1.33 µM | 0.589 µM | 2.57 µM | 0.349 µM | 0.82 µM | 1.91 µM | 1.14 µM | 0.611 µM | 0.608 µM | 4.5 µM | 0.241 µM | 0.442 µM | 2.92 µM
CCC1=NC(C(F)(F)F)(C(F)(F)F)N=C(/N=C(/N)N(C)C(C(C)C)P(=O)(OC(C)C)OC(C)C)O1 (stereo not given) | > 100 µM | > 100 µM | > 100 µM | > 100 µM | > 100 µM | > 100 µM | > 100 µM | > 100 µM | > 100 µM | > 100 µM | > 100 µM | > 100 µM | > 100 µM | > 100 µM | > 100 µM | > 100 µM | > 100 µM | > 100 µM | > 100 µM | > 100 µM
NC(N)=NS(=O)(=O)c1ccc(NC(=O)c2ccc3[nH]c4ccccc4c(=O)c3c2)cc1 | > 100 µM | > 100 µM | > 100 µM | > 100 µM | > 100 µM | > 100 µM | > 100 µM | > 100 µM | > 100 µM | > 100 µM | > 100 µM | > 100 µM | > 100 µM | > 100 µM | > 100 µM | > 100 µM | > 100 µM | > 100 µM | > 100 µM | > 100 µM
CCN(CC)CCNc1ccc(C)c2sc3ccccc3c(=O)c12 | 5.8 µM | 3 µM | 5.4 µM | 16.9 µM | 12.2 µM | 10.3 µM | 3.85 µM | 11.8 µM | 20.4 µM | 7.96 µM | 4.31 µM | 8.04 µM | 4.23 µM | 10.3 µM | 19.3 µM | 19.4 µM | 13.5 µM | 5.5 µM | 18.3 µM | 14 µM
c1ccc(C2=Nc3cccc4cccc(c34)N2)cc1 | > 69.4 µM | > 56.1 µM | > 100 µM | > 72.1 µM | > 100 µM | > 100 µM | 8.14 µM | > 100 µM | > 90.6 µM | 54.7 µM | 50.8 µM | 28.7 µM | 40.9 µM | > 93.1 µM | > 100 µM | > 85.7 µM | > 94.5 µM | 24.8 µM | > 100 µM | > 100 µM
BrCC(Br)(c1ccccc1)c1ccccc1-c1cc(-c2ccccc2)cc(-c2ccccc2)n1 (stereo not given) | 4.12 µM | 26.8 µM | 3.82 µM | > 100 µM | 28 µM | 36 µM | 2.33 µM | 15.1 µM | 8.5 µM | 11.4 µM | 12.3 µM | > 53.3 µM | 2.81 µM | 5.47 µM | > 100 µM | 10.1 µM | 19.4 µM | 10.5 µM | > 45.5 µM | 9.8 µM
COc1ccc2c(CCNS(=O)(=O)c3ccccc3)c(C(C)=O)[nH]c2c1 | > 100 µM | > 100 µM | > 68.1 µM | > 100 µM | > 100 µM | > 100 µM | > 100 µM | > 100 µM | > 100 µM | > 100 µM | > 100 µM | > 100 µM | > 100 µM | > 100 µM | > 100 µM | > 100 µM | > 100 µM | > 100 µM | > 100 µM | > 100 µM
CC1(C)CN=C(Nc2ccc(F)c(F)c2)S1 | > 100 µM | > 100 µM | > 100 µM | > 100 µM | > 100 µM | > 100 µM | > 100 µM | > 100 µM | > 100 µM | > 100 µM | > 100 µM | > 100 µM | > 100 µM | > 100 µM | > 100 µM | > 100 µM | > 100 µM | > 100 µM | > 100 µM | > 100 µM
O=C1C(Cl)=C(N2CCN(c3ccccn3)CC2)C(=O)c2ncccc21 | 3.21 µM | 3.3 µM | 4.22 µM | 7.44 µM | 7 µM | 5.47 µM | 4.79 µM | 18.2 µM | 8.17 µM | 3.39 µM | 3.14 µM | 3.11 µM | 3.31 µM | 4.02 µM | 24.4 µM | 4.63 µM | 6.63 µM | 2.83 µM | 24.1 µM | 30.4 µM
CC(Oc1ccccc1Cl)C(=O)NN1C(=O)CSC1c1ccc(Cl)cc1 (stereo not given) | 35.7 µM | > 100 µM | 31.7 µM | 61.4 µM | 28 µM | 39.2 µM | 23.5 µM | 35.3 µM | 47.6 µM | 32.7 µM | 29.3 µM | 0.381 µM | 37.1 µM | 44.9 µM | 71.6 µM | 45.1 µM | 43 µM | 32.8 µM | 37.6 µM | 34.2 µM
Oc1ccc(-c2cn3cc(C(F)(F)F)ccc3n2)cc1 | > 100 µM | > 100 µM | > 100 µM | > 100 µM | > 100 µM | > 100 µM | > 100 µM | > 100 µM | > 100 µM | > 100 µM | > 100 µM | > 100 µM | > 100 µM | > 100 µM | > 100 µM | > 100 µM | > 100 µM | 88 µM | > 100 µM | 42.3 µM
